Experimental data taken from patent US5430005A, “Herbicidal compositions” (Monsanto Company, priority 1991, dated 1995).

Assay: Natural pH of aqueous solution
Assay type: physicochemical

## O=C(O)CNCP(=O)(O)O [N-phosphonomethylglycine]
  natural pH of aqueous solution: ~4.7
